Tested on: Engineered strains of E. coli
Format: cell-based
Conditions: for change in expression of gene adiA / change in expression of gene adiC / change in expression of gene adiY / change in expression of gene bhsA / change in expression of gene bssR / change in expression of gene bssS / change in expression of gene clpA / change in expression of gene clpB / change in expression of gene clpP / change in expression of gene coaA / change in expression of gene coaD / change in expression of gene cspA / change in expression of gene cspB / change in expression of gene cspC / change in expression of gene cspD / change in expression of gene cspE / change in expression of gene cspF / change in expression of gene dhaK / change in expression of gene dhaL / change in expression of gene dnaJ / change in expression of gene dnaK / change in expression of gene fabA / change in expression of gene fabB / change in expression of gene fabD / change in expression of gene flgA / change in expression of gene flgB / change in expression of gene flgC / change in expression of gene flgD / change in expression of gene flgE / change in expression of gene flgF / change in expression of gene flgG / change in expression of gene flgH / change in expression of gene gabD / change in expression of gene gabP / change in expression of gene gabT / change in expression of gene gadA / change in expression of gene gadB / change in expression of gene gadC / change in expression of gene gadE / change in expression of gene gadW / change in expression of gene gadX / change in expression of gene gadY / change in expression of gene glpA / change in expression of gene glpB / change in expression of gene glpC / change in expression of gene groL / change in expression of gene groS / change in expression of gene hchA / change in expression of gene hslJ / change in expression of gene hslO / change in expression of gene hslR / change in expression of gene hslU / change in expression of gene hslV / change in expression of gene ibpA / change in expression of gene ibpB / change in expression of gene lhgO / change in expression of gene lipA / change in expression of gene lipB / change in expression of gene narG / change in expression of gene narH / change in expression of gene narI / change in expression of gene narJ / change in expression of gene narK / change in expression of gene potA / change in expression of gene potB / change in expression of gene potC / change in expression of gene pspA / change in expression of gene pspB / change in expression of gene rpoA / change in expression of gene rpoB / change in expression of gene rpoC / change in expression of gene rpoD / change in expression of gene rpoE / change in expression of gene rpoH / change in expression of gene rpoN / change in expression of gene rpoS / change in expression of gene rpoZ / change in expression of gene spy / change in expression of gene tatA / change in expression of gene tatB / change in expression of gene tatC / change in expression of gene tatD / change in expression of gene tatE: after solvent exposure, vs positive control; for number of genes with significant changes in expression: vs control, Bon Ferroni corrected p-value<0.05

## CC(C)=O [acetone]
  expression of accBC (fatty acid biosynthesis): downregulated
  expression of bssRS (decreasing biofilm material): upregulated
  expression of chaperone genes groLS and dnaJK: increased expression
  expression of gad genes: increase in expression
  expression of gadABCE (acid resistance via GABA production): upregulated
  expression of glpABC (glycerol to glycerone phosphate): increased in expression
  expression of heat shock proteins and chaperones hslJORUV: upregulation
  expression of ibpAB and clpAB (protein protection and repair): increased
  expression of marA: upregulated
  change in expression of gene adiA: 1.50 ± 0.91
  change in expression of gene adiC: −0.54 ± 1.10
  change in expression of gene adiY: −0.57 ± 0.71
  change in expression of gene bhsA: 4.49 ± 0.62
  change in expression of gene bssR: 2.34 ± .46
  change in expression of gene bssS: 5.02 ± .88
  change in expression of gene clpA: 1.92 ± .68
  change in expression of gene clpB: 4.51 ± .69
  change in expression of gene clpP: 1.39 ± 0.63
  change in expression of gene coaA: −3.10 ± 1.0
  change in expression of gene coaD: 0.05 ± 1.01
  change in expression of gene cspA: −4.58 ± 0.64
  change in expression of gene cspB: −5.17 ± 1.49
  change in expression of gene cspC: −0.95 ± .98
  change in expression of gene cspD: 2.52 ± 0.63
  change in expression of gene cspE: −2.45 ± 0.72
  change in expression of gene cspF: −5.06 ± 1.34
  change in expression of gene dhaK: 0.26 ± 0.67
  change in expression of gene dhaL: −0.41 ± 0.74
  change in expression of gene dnaJ: 2.96 ± 0.74
  change in expression of gene dnaK: 4.58 ± 0.66
  change in expression of gene fabA: −0.85 ± 0.84
  change in expression of gene fabB: 1.61 ± 0.72
  change in expression of gene fabD: −1.74 ± 0.59
  change in expression of gene flgA: −2.14 ± 1.68
  change in expression of gene flgB: −4.07 ± 1.67
  change in expression of gene flgC: −4.24 ± 2.06
  change in expression of gene flgD: −4.39 ± 2
  change in expression of gene flgE: −4.02 ± 1.30
  change in expression of gene flgF: −2.98 ± 1.7
  change in expression of gene flgG: −4.98 ± 1.68
  change in expression of gene flgH: −2.24 ± 1.82
  change in expression of gene gabD: 0.73 ± 1.41
  change in expression of gene gabP: −1.06 ± 1.42
  change in expression of gene gabT: 0.34 ± 1.38
  change in expression of gene gadA: 4.57 ± 0.70
  change in expression of gene gadB: 4.53 ± 0.82
  change in expression of gene gadC: 4.83 ± 0.82
  change in expression of gene gadE: 2.23 ± .62
  change in expression of gene gadW: 1.58 ± 1
  change in expression of gene gadX: 1.71 ± 0.59
  change in expression of gene gadY: 0.05 ± 0.83
  change in expression of gene glpA: 4.83 ± 0.91
  change in expression of gene glpB: 2.81 ± 0.69
  change in expression of gene glpC: 3.12 ± 0.87
  change in expression of gene groL: 4.18 ± 0.58
  change in expression of gene groS: 4.58 ± 0.51
  change in expression of gene hchA: 4.64 ± 0.64
  change in expression of gene hslJ: −0.10 ± 0.75
  change in expression of gene hslO: 2.78 ± 0.69
  change in expression of gene hslR: 3.01 ± 0.70
  change in expression of gene hslU: 2.69 ± 0.59
  change in expression of gene hslV: 2.24 ± 0.67
  change in expression of gene ibpA: 5.64 ± 1.22
  change in expression of gene ibpB: 6.70 ± 1.51
  change in expression of gene lhgO: 1.82 ± 1.73
  change in expression of gene lipA: −1.03 ± 0.69
  change in expression of gene lipB: −1.11 ± 0.75
  change in expression of gene narG: 2.69 ± 0.70
  change in expression of gene narH: 2.94 ± 0.66
  change in expression of gene narI: 1.48 ± 1.02
  change in expression of gene narJ: 1.75 ± 0.74
  change in expression of gene narK: 0.21 ± 0.96
  change in expression of gene potA: −3.62 ± 0.91
  change in expression of gene potB: −2.22 ± 1.43
  change in expression of gene potC: −3.06 ± 1.45
  change in expression of gene pspA: 2.10 ± 0.60
  change in expression of gene pspB: 0.76 ± 0.80
  change in expression of gene rpoA: −0.20 ± 0.47
  change in expression of gene rpoB: −0.26 ± 0.43
  change in expression of gene rpoC: −0.29 ± 0.43
  change in expression of gene rpoD: 1.41 ± 0.72
  change in expression of gene rpoE: −0.26 ± 0.66
  change in expression of gene rpoH: 1.72 ± 0.55
  change in expression of gene rpoN: −1.18 ± 0.54
  change in expression of gene rpoS: 1.63 ± 0.51
  change in expression of gene rpoZ: −1.83 ± 0.60
  change in expression of gene spy: 1.90 ± 0.95
  change in expression of gene tatA: −1.15 ± 0.57
  change in expression of gene tatB: −1.35 ± 0.65
  change in expression of gene tatC: −2.55 ± 1.23
  change in expression of gene tatD: −1.90 ± 1.23
  change in expression of gene tatE: 0.41 ± 0.70
  number of genes with significant changes in expression: 399 genes

## C1=CCCCC1 [cyclohexene]
  expression of acid resistance genes (gad, adi families): downregulated
  expression of chaperone proteins groLS, spy, and dnaJK: highly upregulated
  expression of dihydroxyacetone kinase genes dhaKLM: upregulated
  expression of galactitol metabolism genes gatABD: upregulated
  expression of heat shock proteins and chaperones hslJORUV: increased
  expression of ibpAB and clpAB (protein protection and repair): increased
  expression of marABC (multiple antibiotic resistance): upregulated
  expression of nitrate reductase genes narGHJKP: upregulated
  expression of phage shock genes pspABCDE: highly upregulated
  change in expression of gene adiA: −1.87 ± 0.86
  change in expression of gene adiC: −1.64 ± 1.02
  change in expression of gene adiY: −2.84 ± 0.66
  change in expression of gene bhsA: 4.18 ± 0.60
  change in expression of gene bssR: 2.27 ± 0.44
  change in expression of gene bssS: 6.69 ± 0.84
  change in expression of gene clpA: 4.12 ± 0.63
  change in expression of gene clpB: 6.17 ± 0.69
  change in expression of gene clpP: 2.72 ± .59
  change in expression of gene coaA: −1.36 ± 0.88
  change in expression of gene coaD: 1.34 ± 0.90
  change in expression of gene cspA: −6.07 ± 0.58
  change in expression of gene cspB: −4.10 ± 1.31
  change in expression of gene cspC: −3.65 ± 0.94
  change in expression of gene cspD: 2.88 ± 0.57
  change in expression of gene cspE: −0.06 ± 0.63
  change in expression of gene cspF: −2.37 ± 1.04
  change in expression of gene dhaK: 3.72 ± 0.59
  change in expression of gene dhaL: 2.40 ± 0.62
  change in expression of gene dnaJ: 6.64 ± 0.69
  change in expression of gene dnaK: 5.96 ± 0.66
  change in expression of gene fabA: −1.13 ± 0.76
  change in expression of gene fabB: 1.01 ± 0.66
  change in expression of gene fabD: −1.64 ± 0.53
  change in expression of gene flgA: −0.73 ± 1.53
  change in expression of gene flgB: −3.31 ± 1.51
  change in expression of gene flgC: −4.46 ± 1.94
  change in expression of gene flgD: −3.72 ± 1.87
  change in expression of gene flgE: −2.82 ± 1.18
  change in expression of gene flgF: −2.88 ± 1.58
  change in expression of gene flgG: −2.77 ± 1.48
  change in expression of gene flgH: −2.14 ± 1.71
  change in expression of gene gabD: 0.11 ± 1.32
  change in expression of gene gabP: 1.19 ± 1.28
  change in expression of gene gabT: 0.31 ± 1.28
  change in expression of gene gadA: −0.52 ± 0.68
  change in expression of gene gadB: 0.17 ± 0.80
  change in expression of gene gadC: 1.28 ± 0.80
  change in expression of gene gadE: −3.51 ± 0.61
  change in expression of gene gadW: −2.17 ± 0.95
  change in expression of gene gadX: −3.69 ± 0.57
  change in expression of gene gadY: −4.01 ± 0.80
  change in expression of gene glpA: 7.06 ± 0.87
  change in expression of gene glpB: 4.64 ± 0.63
  change in expression of gene glpC: 5.02 ± 0.80
  change in expression of gene groL: 4.57 ± 0.57
  change in expression of gene groS: 4.63 ± 0.50
  change in expression of gene hchA: 2.06 ± 0.60
  change in expression of gene hslJ: 1.41 ± 0.66
  change in expression of gene hslO: 4.56 ± 0.64
  change in expression of gene hslR: 4.80 ± 0.65
  change in expression of gene hslU: 4.95 ± 0.55
  change in expression of gene hslV: 4.81 ± 0.61
  change in expression of gene ibpA: 9.90 ± 1.21
  change in expression of gene ibpB: 10.95 ± 1.50
  change in expression of gene lhgO: 1.38 ± 1.64
  change in expression of gene lipA: 0.42 ± 0.73
  change in expression of gene lipB: 0.61 ± 1.03
  change in expression of gene narG: 4.96 ± 0.65
  change in expression of gene narH: 4.45 ± 0.61
  change in expression of gene narI: 3.11 ± 0.92
  change in expression of gene narJ: 4.11 ± 0.68
  change in expression of gene narK: 3.31 ± 0.84
  change in expression of gene potA: −2.79 ± 0.81
  change in expression of gene potB: −1.05 ± 1.29
  change in expression of gene potC: −0.55 ± 1.19
  change in expression of gene pspA: 10.50 ± 0.55
  change in expression of gene pspB: 9.33 ± 0.68
  change in expression of gene rpoA: 0.17 ± 0.44
  change in expression of gene rpoB: 0.79 ± 0.40
  change in expression of gene rpoC: 1.15 ± 0.39
  change in expression of gene rpoD: 4.75 ± 0.70
  change in expression of gene rpoE: 1.44 ± 0.62
  change in expression of gene rpoH: 1.79 ± 0.52
  change in expression of gene rpoN: −1.54 ± 0.49
  change in expression of gene rpoS: 0.22 ± 0.47
  change in expression of gene rpoZ: −0.02 ± 0.53
  change in expression of gene spy: 3.95 ± 0.87
  change in expression of gene tatA: −1.95 ± 0.52
  change in expression of gene tatB: −1.59 ± 0.59
  change in expression of gene tatC: −1.25 ± 1.09
  change in expression of gene tatD: −1.56 ± 1.13
  change in expression of gene tatE: −0.97 ± 0.64
  number of genes with significant changes in expression: 530 genes

Source: patent publication US20230167467A1, “METHODS AND COMPOSITIONS FOR THE PRODUCTION OF ISOBUTENE” (University of Alaska Anchorage, priority 2020, published 2023)
